# Test results from US11390625B2, “Aryl-phosphorus-oxygen compound as EGFR kinase inhibitor” (Chia Tai Tianqing Pharmaceutical Group Co., Ltd., priority 2017, dated 2022).
# Key:
# A431 cells (EGFR WT) = test: Cell antiproliferation experiment (1), A431 cells, CellTiter Glo; assay type: cell-based; details: Homo sapiens, A-431, 72 h, read-out: anti-proliferation effect on cells A431 EGFR WT IC50
# Description: 1) Cell Culture and Passage
# (1) A431 medium: 88% DMEM+10% fetal bovine serum+1% L-glutamine+1% double-antibody
# (2) A431 cells were isolated and passaged every 3-4 days, wherein the number of the cells for 3-day passage was 5e6 cells per T75 culture flask, and the number of the cells for 4-day passage was 3e6 cells per T75 culture flask.
# 2) Day 1: Preparation of Cell Plate
# (1) Phosphate buffer, trypsin, and a culture medium were placed in a water bath at 37° C. to preheat.
# (2) The original medium was removed from the cell culture flask and washed once with 6 mL of PBS.
# (3) 5 mL of phosphate buffer was pipetted into the culture flask to rinse the cells (passage 17), and then the liquid was discarded.
# (4) The cell culture flask was added with 3.5 mL of trypsin, and shaken gently, trypsin was removed after fully contact with the cells, and then the culture flask was placed in an incubator containing 5% CO2 at 37° C. for about 1 minute;
# (5) The cells were resuspended in 10 mL cell culture medium, and about 0.6 mL of cell suspension was take out for counting (ViCell XR);
# (6) The cell suspension was diluted with the medium to the cell density of 5e4 cells per ml, which was required for plating (cell concentration: 2500 cells per well);
# (7) 100 μL of phosphate buffer solution was added to each well around the cell plate, while 50 μL of the cell suspension was added to other wells, and the plate was incubated overnight in a incubator containing 5% CO2 at 37° C.
# (1) 9 μL of the compound (concentration: 1 mM) was added into a shallow well plate for Echo.
# (2) The shallow well plate was centrifuged at 1000 rpm for 10 s and the cell plate was removed from the incubator.
# (3) According to the layout of the microplate, the compounds was diluted with a three-fold concentration gradient using Echo, each compound was diluted to 10 concentration gradients and 250 nL of the diluted compounds was respectively added to the cell plate, and then the cell plate was returned to the incubator and further incubated for 3 days.
# 4) Day 5: Adding CTG and Reading the Plate
# (1) After incubation for 72 h, 25 μL of CellTiter Glo was added to each well of the cell plate, followed by shaking the plate for 10 min in the dark.
# (2) The plate was read on Envision.
# Data analysis: By computer fitting, the corresponding concentration of the compound at 50% inhibition rate was read as the IC50 of the compound for inhibiting cell activity.
# [1] = test system: pEGFR Ba/F3 (EGFR Δ19del/T790M/C797S) cells; test: Cell phosphorylation inhibition experiment, pEGFR Ba/F3 (EGFR Δ19del/T790M/C797S); assay type: cell-based; details: Ba/F3 EGFR; Ba/F3 cells, EGF stimulated; read-out: Effect on cellular EGFR phosphorylation Ba/F3(Δ19del/T790M/C797S) IC50
# Description: The test compounds and reference compounds were diluted with 100% DMSO to 10 mM or 1 mM, and then a gradient dilution was performed by using Echo, 150 nL per well, with a three-fold concentration gradient and a ten-point dose response curve. The final concentration of the compounds was 100 μM or 10 μM. The suspension cells was centrifuged at 1000 rp for 5 minutes, suspend in Hanks' balanced salt solution, and added to a 384-well plate containing the compounds at 10 L/120K/well (the cell density of 1.2×10^7), followed by centrifugation at 1200 rpm for 30 s and incubation at 37° C. for 30 min. 5 μL of EGF (which has been diluted with 0.1% BSA Hanks' balanced salt solution) was added to each well, in which the final concentration of EGF was 1 μM. The plate was centrifuged at 1200 rpm for 30 s and incubated at 37° C. for 20 min. 5 μL of 4× lysis buffer containing blocking solution was added to each well, and then the plate was centrifuged at 1200 rpm for 30 s, and incubated at 37° C. for 30 min.
# PC-9 (Δ19del) xenograft = test: In vivo pharmacodynamics study (2): PC-9 (Δ19del) subcutaneously transplanted tumor in mouse; details: 50 mg/kg (days 0-9); for Tumor volume Day 0 / Tumor volume Day 2 / Tumor volume Day 6 / Tumor volume Day 9 / Tumor volume Day 13 / Tumor volume Day 16 / Tumor volume Day 20 / Tumor volume Day 23: 25 mg/kg (days 10-21) oral once a day
# Description: 1. Cell culture: lung cancer PC-9 cells were monolayer cultured in vitro, culture conditions: RPMI-1640 (cell culture medium) plus 10% fetal bovine serum, 100 U/mL penicillin and 100 μg/mL streptomycin, culture in a 5% CO2 incubator at 37° C. The cells were conventionally digested with trypsin-EDTA twice a week for passage. When the cell saturation was 80%-90%, and the number reached the requirements, the cells were collected and counted. The density was 5×10^6 cells.
# 2. Cell inoculation: 0.2 mL (containing 5×10^6 cells) of PC-9 cell suspension (PBS: Matrigel=1:1) was subcutaneously inoculated into the right back of each mouse, with a total of 64 mice. On Day 7 after inoculation, when the average tumor volume measured reached 169 mm^3, the animals were randomly hierarchically grouped based on tumor volume and animal weight, and started to administrate each group. PBS was a phosphate buffer solution, and Matrigel was a matrix.
# 3. Administration: dosage: Days 0-9: 50 mg/kg; Days 10-21: 25 mg/kg; oral administration; administration frequency: once a day×3 weeks.
# Tumor Measurement and Experimental Indicators
# Tumor diameter was measured twice a week with a vernier caliper.
# The antitumor effect of the compound was evaluated by TGI (%).
# The relative tumor volume (RTV) was calculated according to the results of tumor measurement. The calculation formula was RTV=Vt/V0, wherein V0 was the tumor volume measured during group administration (i.e., DO), and Vt was the tumor volume of the corresponding mice measured at a certain time. The data on the same day were taken for TRTV and CRTV.
# TGI (%) reflected tumor growth inhibition rate.
# After the end of the experiments, the tumor weight would be measured and the TGI (%) was calculated.
# [2] = test system: Ba/F3 (Δ19del/T790M/C797S) xenograft; test: In vivo efficacy (1): Ba/F3 (Δ19del/T790M/C797S) subcutaneous xenograft (CDX) in BALB/c nude mice; details: for TGI (the tumor inhibition value): 45 mg/kg oral daily, 13 consecutive days;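 as to all read-outs here: female nude mice, dosing begun at mean tumor size near 80–120 mm^3, tumors measured by caliper twice weekly, volume in mm^3 computed as 0.5×long×short diameter squared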
# Description: BALB/c nude mice, female, 6-8 weeks old, 18-20 g of body weight, were housed in SPF-grade environment, and each cage was individually ventilated (5 mice per cage). […] A total of 48 mice purchased from Beijing Weitonglihua company were used for the study. Each mouse was implanted with cells at the right flank, for tumor growth. The experiment was started when the average tumor volume reached approximately 80-120 mm^3. […] Tumor volume was measured twice a week with a two-dimensional caliper, measured in mm^3 and calculated by the following formula: V=0.5a×b^2, wherein a and b are the long and short diameters of the tumor, respectively. Antitumor efficacy was determined by dividing the average increase of the tumor volume of the animals treated with the compound by the average increase of the tumor volume of the untreated animals.
SMILES,IC50 (A431 cells (EGFR WT)) [nM],IC50 [1] [nM],Tumor volume Day 0 (PC-9 (Δ19del) xenograft) [mm^3],Tumor volume Day 2 (PC-9 (Δ19del) xenograft) [mm^3],Tumor volume Day 6 (PC-9 (Δ19del) xenograft) [mm^3],Tumor volume Day 9 (PC-9 (Δ19del) xenograft) [mm^3],Tumor volume Day 13 (PC-9 (Δ19del) xenograft) [mm^3],Tumor volume Day 16 (PC-9 (Δ19del) xenograft) [mm^3],Tumor volume Day 20 (PC-9 (Δ19del) xenograft) [mm^3],Tumor volume Day 23 (PC-9 (Δ19del) xenograft) [mm^3],Tumor volume Day 0 ([2]; 5 mg/kg/day oral) [mm^3],Tumor volume Day 2 ([2]; 5 mg/kg/day oral) [mm^3],Tumor volume Day 5 ([2]; 5 mg/kg/day oral) [mm^3],Tumor volume Day 8 ([2]; 5 mg/kg/day oral) [mm^3],Tumor volume Day 10 ([2]; 5 mg/kg/day oral) [mm^3],Tumor volume Day 12 ([2]; 5 mg/kg/day oral) [mm^3],Tumor volume Day 13 ([2]; 5 mg/kg/day oral) [mm^3],Tumor volume Day 0 ([2]; 15 mg/kg/day oral) [mm^3],Tumor volume Day 2 ([2]; 15 mg/kg/day oral) [mm^3],Tumor volume Day 5 ([2]; 15 mg/kg/day oral) [mm^3],further results
COc1cc(N2CCC(N3CCN(C)CC3)CC2)c(C)cc1Nc1ncc(Br)c(Nc2ccc3nccnc3c2P(C)(C)=O)n1 [Compound 34],154,19,185,198,92,75,40,45,76,111,84,108,212,395,505,748,881,84,76,107,"TGI (PC-9 (Δ19del) xenograft; day 23, 25 mg/kg (days 10-21) oral): 100%; Tumor volume Day 8 ([2]; 15 mg/kg/day oral): 126 mm^3; Tumor volume Day 10 ([2]; 15 mg/kg/day oral): 176 mm^3; Tumor volume Day 12 ([2]; 15 mg/kg/day oral): 292 mm^3; Tumor volume Day 13 ([2]; 15 mg/kg/day oral): 326 mm^3; TGI (the tumor inhibition value) [2]: 101%; Tumor volume Day 0 ([2]; 45 mg/kg/day oral): 84 mm^3; Tumor volume Day 2 ([2]; 45 mg/kg/day oral): 56 mm^3; Tumor volume Day 5 ([2]; 45 mg/kg/day oral): 32 mm^3; Tumor volume Day 8 ([2]; 45 mg/kg/day oral): 35 mm^3; Tumor volume Day 10 ([2]; 45 mg/kg/day oral): 42 mm^3; Tumor volume Day 12 ([2]; 45 mg/kg/day oral): 73 mm^3; Tumor volume Day 13 ([2]; 45 mg/kg/day oral): 68 mm^3"
CCc1cc(Nc2ncc(Br)c(Nc3ccc4nccnc4c3P(C)(C)=O)n2)c(OC)cc1N1CCC(N2CCN(C)CC2)CC1 [Compound 41],245,25,184,198,54,44,36,30,37,42,84,103,203,348,485,707,814,84,68,69,Tumor volume Day 8 ([2]; 15 mg/kg/day oral): 82 mm^3; Tumor volume Day 10 ([2]; 15 mg/kg/day oral): 115 mm^3; Tumor volume Day 12 ([2]; 15 mg/kg/day oral): 146 mm^3; Tumor volume Day 13 ([2]; 15 mg/kg/day oral): 211 mm^3; TGI (the tumor inhibition value) [2]: 109%; Tumor volume Day 0 ([2]; 45 mg/kg/day oral): 84 mm^3; Tumor volume Day 2 ([2]; 45 mg/kg/day oral): 47 mm^3; Tumor volume Day 5 ([2]; 45 mg/kg/day oral): 24 mm^3; Tumor volume Day 8 ([2]; 45 mg/kg/day oral): 7 mm^3; Tumor volume Day 10 ([2]; 45 mg/kg/day oral): 4 mm^3; Tumor volume Day 12 ([2]; 45 mg/kg/day oral): 0 mm^3; Tumor volume Day 13 ([2]; 45 mg/kg/day oral): 0 mm^3
